# Assay results taken from patent publication US12280040B2, “Compositions and methods of a dihydroisoxazole compound that reduces ectoparasite infestations on fish” (EVAH Atlantic Inc., priority 2023, dated 2025).
# Tests used:
# Lepeophtheirus salmonis = assay: Duration of efficacy: medicated feed, then sea lice infestation of Atlantic salmon at 8 or 17 DPT (Example 2); format: in vivo; conditions: for percent efficacy for total sea lice, across counts: cohort infested at 8 DPT
# Description: A randomized, blinded, parallel-group, negative-controlled study was conducted in which, the active ingredient was administered to Atlantic salmon at three dose rate (0 mg/kg/day, 0.025 mg/kg/day, and 0.060 mg/kg/day administered in medicated feed for 7 consecutive days. Following the treatment, the fish were intentionally infested with sea lice either 8 or 17 DPT, all within a controlled laboratory environment with seawater. The evaluation of efficacy for each cohort occurred at three specific timepoints post-infestation by comparing lice counts between the groups that received treatment and the untreated control groups.
# Healthy Atlantic salmon post-smolts (n=1080) were selected for enrollment and distributed sequentially across eighteen (18) study tanks. Fish were weighed individually during the allocation of fish to tanks on study day (SD) −55&−56. Fish were weighed again on SD −19 to estimate the average weight of all fish and used to determine the feeding amount during the treatment period (SD 0−+6). The mean weight of fish prior to treatment was 716.1±152.5 g. Fish in the cohort infested 8 DPT were additionally weighed on SD +8, +14, +27, +35, +41 and +48. Fish in the cohort infested 17 DPT were additionally weighed on SD +8, +23, +36, +44, +50, and +57. For both cohorts SD 0 served as the first day of treatment.
# Atlantic salmon post-smolts at each infestation time (8 or 17 DPT) were infested once with about 100 copepodids (Lepeophtheirus salmonis) per fish. During the study the water temperature varied between 9 and 13° C., and the water oxygen saturation was above 80%.
# Three treatment groups were randomly assigned to eighteen study tanks by blocking the paired tank rows for the 8 and 17 DPT exposure. Study personnel were blinded as to the identity of the treatments for each tank.
# Sea lice were counted three times during the study. […] The counts were strategically scheduled to ensure the presence of life stages, including chalimus, pre-adult, and adult stages, in at least one of the three counts within the negative control treatment. At all timepoints 10 fish were euthanized and lice counted.
# Medicated feed was prepared by dry coating commercially available fish feed pellets with a premix containing the active ingredient to reach a content of about 4.2 and 10.0 mg/kg. The fish pellets were then coated with feed grade herring fish oil at an inclusion rate of about 0.75% w/w (7.5 g/kg feed) The consumption rate of the medicated feed was set to 0.6% body weight.
# For the cohort infested at 8 DPT and the cohort infested at 17 DPT, treatment efficacy was computed for total number of sea lice/fish and total number of mobile life stages, i.e., preadult & adult sea lice/fish for each sea lice counting occasion (Count I, II & III). For the total number of attached/fish, treatment efficacy was computed at Count I only. Percent efficacy was computed using Abbott's formula for each treatment group compared to control as follows: percent efficacy=100*(MC−MT)/MC, where MC and MT are the arithmetic means of sea lice counts in the untreated control and S-roxapin-treated groups, respectively.
# Treatments were considered efficacious when the percent efficacy was ≥90% for treated groups compared to untreated control groups. The mean sea lice abundance was reported for different parasite life stages (attached, mobile, and total (attached and mobile together)) and computed as the number of lice on salmon divided by the number of sampled fish per tank. The attached category included chalimus I & II stages. The mobile category included pre-adult and adult life stages of both males and females. The numbers of mobile, attached, and total lice were considered in this study.
# Lepeophtherius salmonis = conditions: 1.0 mg/kg/d in medicated feed to Atlantic salmon for 7 consecutive days; lice counted 10 days after end of treatment; cited from earlier work
# sea lice = assay: First set of experiments: medicated feed over 7 consecutive days to salmon, sea lice infestation; format: in vivo; conditions: all dose rates 0.050, 0.125, 0.250 mg/kg/d in medicated feed over 7 consecutive days to salmon
# Description: The inventors conducted a first set of experiments with administration in medicated feed over 7 consecutive days to salmon of 0.050, 0.125, 0.250 mg/kg/d to determine a non-therapeutic dosage for control or treatment of sea lice infestation. As these lower dosages represented a large reduction in concentration to that described in U.S. Pat. No. 9,920,037 (1.0 mg/kg/d) and, as well, represented concentrations well below the dosage for related IOB products for dogs, cats and poultry approved between 2014 and 2021 by such regulatory authorities as the U.S. Food and Drug Administration, Health Canada, and the European Medicines Agency, it was reasonable to expect to find a non-therapeutic dosage at the lower dosages tested.
# [1] = 0.025 mg/kg/day in feed 7 d, infested 8 DPT, Count I (21DPI)
# [2] = 0.025 mg/kg/day in feed 7 d, infested 8 DPT, Count III (34 DPI)
# [3] = 0.025 mg/kg/day in feed 7 d, infested 17 DPT, Count I (21DPI)
# [4] = 0.025 mg/kg/day in feed 7 d, infested 17 DPT, Count III (34 DPI)
# [5] = 0.060 mg/kg/day in feed 7 d, infested 8 DPT, Count I (21DPI)
# [6] = 0.060 mg/kg/day in feed 7 d, infested 8 DPT, Count III (34 DPI)
# [7] = 0.060 mg/kg/day in feed 7 d, infested 17 DPT, Count I (21DPI)
# [8] = 0.060 mg/kg/day in feed 7 d, infested 17 DPT, Count III (34 DPI)
smiles,measurement,setting,value
"C#CCNC(=O)CNC(=O)c1sc(C2=NO[C@@](c3cc(Cl)c(Cl)c(Cl)c3)(C(F)(F)F)C2)cc1C [S-roxapin, (S)-3-methyl-N-(2-oxo-2-(prop-2-yn-1-ylamino)ethyl)-5-(5-(3,4,5-trichlorophenyl)-5-(trifluoromethyl)-4,5-dihydroisoxazol-3-yl)thiophene-2-carboxamide]",Number of Attached Lice/Fish % Efficacy,Lepeophtheirus salmonis; [1],92.5%
same,Number of Attached Lice/Fish Mean ± SD,Lepeophtheirus salmonis; [1],1.6 ± 2.0 lice/fish
same,Number of Mobile Lice/Fish % Efficacy,Lepeophtheirus salmonis; [1],87.2%
same,Number of Mobile Lice/Fish Mean ± SD,Lepeophtheirus salmonis; [1],1.0 ± 1.3 lice/fish
same,Total Number of Lice/Fish % Efficacy,Lepeophtheirus salmonis; [1],91.1%
same,Total Number of Lice/Fish Mean ± SD,Lepeophtheirus salmonis; [1],2.6 ± 2.9 lice/fish
same,Number of Attached Lice/Fish Mean ± SD,Lepeophtheirus salmonis; [2],0.0 ± 0.0 lice/fish
same,Number of Mobile Lice/Fish % Efficacy,Lepeophtheirus salmonis; [2],91.8%
same,Number of Mobile Lice/Fish Mean ± SD,Lepeophtheirus salmonis; [2],2.5 ± 2.8 lice/fish
same,Total Number of Lice/Fish % Efficacy,Lepeophtheirus salmonis; [2],91.8%
same,Total Number of Lice/Fish Mean ± SD,Lepeophtheirus salmonis; [2],2.5 ± 2.8 lice/fish
same,Number of Attached Lice/Fish % Efficacy,Lepeophtheirus salmonis; [3],21.2%
same,Number of Attached Lice/Fish Mean ± SD,Lepeophtheirus salmonis; [3],2.7 ± 1.9 lice/fish
same,Number of Mobile Lice/Fish % Efficacy,Lepeophtheirus salmonis; [3],−10.1%
same,Number of Mobile Lice/Fish Mean ± SD,Lepeophtheirus salmonis; [3],24.4 ± 8.8 lice/fish
same,Total Number of Lice/Fish % Efficacy,Lepeophtheirus salmonis; [3],−5.9%
same,Total Number of Lice/Fish Mean ± SD,Lepeophtheirus salmonis; [3],27.1 ± 9.0 lice/fish
same,Number of Attached Lice/Fish Mean ± SD,Lepeophtheirus salmonis; [4],0.0 ± 0.0 lice/fish
same,Number of Mobile Lice/Fish % Efficacy,Lepeophtheirus salmonis; [4],−16.2%
same,Number of Mobile Lice/Fish Mean ± SD,Lepeophtheirus salmonis; [4],32.1 ± 12.1 lice/fish
same,Total Number of Lice/Fish % Efficacy,Lepeophtheirus salmonis; [4],−16.0%
same,Total Number of Lice/Fish Mean ± SD,Lepeophtheirus salmonis; [4],32.1 ± 12.1 lice/fish
same,"percent efficacy for total sea lice, across counts",Lepeophtheirus salmonis; 0.025 mg/kg/day,above 86.8%
same,efficacy for mobile lice,"Lepeophtheirus salmonis; 0.025 mg/kg/day, cohort infested at 17 DPT",no efficacy
same,efficacy for total sea lice,"Lepeophtheirus salmonis; 0.025 mg/kg/day, cohort infested at 17 DPT (printed: in DOE14)",No efficacy
same,Number of Attached Lice/Fish % Efficacy,Lepeophtheirus salmonis; [5],99.8%
same,Number of Attached Lice/Fish Mean ± SD,Lepeophtheirus salmonis; [5],0.0 ± 0.2 lice/fish
same,Number of Mobile Lice/Fish % Efficacy,Lepeophtheirus salmonis; [5],99.6%
same,Number of Mobile Lice/Fish Mean ± SD,Lepeophtheirus salmonis; [5],0.0 ± 0.2 lice/fish
same,Total Number of Lice/Fish % Efficacy,Lepeophtheirus salmonis; [5],99.8%
same,Total Number of Lice/Fish Mean ± SD,Lepeophtheirus salmonis; [5],0.1 ± 0.3 lice/fish
same,Number of Attached Lice/Fish Mean ± SD,Lepeophtheirus salmonis; [6],0.0 ± 0.0 lice/fish
same,Number of Mobile Lice/Fish % Efficacy,Lepeophtheirus salmonis; [6],100%
same,Number of Mobile Lice/Fish Mean ± SD,Lepeophtheirus salmonis; [6],0.0 ± 0.0 lice/fish
same,Total Number of Lice/Fish % Efficacy,Lepeophtheirus salmonis; [6],100%
same,Total Number of Lice/Fish Mean ± SD,Lepeophtheirus salmonis; [6],0.0 ± 0.0 lice/fish
same,Number of Attached Lice/Fish % Efficacy,Lepeophtheirus salmonis; [7],46.2%
same,Number of Attached Lice/Fish Mean ± SD,Lepeophtheirus salmonis; [7],1.9 ± 1.6 lice/fish
same,Number of Mobile Lice/Fish % Efficacy,Lepeophtheirus salmonis; [7],18.5%
same,Number of Mobile Lice/Fish Mean ± SD,Lepeophtheirus salmonis; [7],18.0 ± 6.1 lice/fish
same,Total Number of Lice/Fish % Efficacy,Lepeophtheirus salmonis; [7],22.3%
same,Total Number of Lice/Fish Mean ± SD,Lepeophtheirus salmonis; [7],19.9 ± 6.1 lice/fish
same,Number of Attached Lice/Fish Mean ± SD,Lepeophtheirus salmonis; [8],0.0 ± 0.0 lice/fish
same,Number of Mobile Lice/Fish % Efficacy,Lepeophtheirus salmonis; [8],23.0%
same,Number of Mobile Lice/Fish Mean ± SD,Lepeophtheirus salmonis; [8],21.3 ± 9.0 lice/fish
same,Total Number of Lice/Fish % Efficacy,Lepeophtheirus salmonis; [8],23.1%
same,Total Number of Lice/Fish Mean ± SD,Lepeophtheirus salmonis; [8],21.3 ± 9.0 lice/fish
same,"percent efficacy for total sea lice, across counts",Lepeophtheirus salmonis; 0.060 mg/kg/day,above 99.2%
same,efficacy against chalimus and pre-adult/adult stages of the sea louse,Lepeophtherius salmonis,100%
same,effectiveness in reducing sea lice burdens,sea lice,~100%
